Data as given in patent publication US7615651B2, “Diaryl, dipyridinyl and aryl-pyridinyl derivatives and uses thereof” (Pfizer Inc., priority 2006, dated 2009).
pKi: −log10 of the molar value. Where two headings read alike, the source gives them in different places.

Tests used:
kappa opioid receptor = kappa opioid receptor (Homo sapiens, UniProt P41145); conditions: kappa opioid receptor subtype; cited from earlier work
mu opioid receptor = mu opioid receptor (Homo sapiens, UniProt P35372); conditions: mu opioid receptor subtype; cited from earlier work
delta opioid receptor = delta opioid receptor (Homo sapiens, UniProt P41143); conditions: cited from earlier work
opioid receptor mu = target: T1, opioid receptor mu (Homo sapiens, UniProt P35372); assay: GTPγ[35S] binding assay, antagonism of endorphin; assay type: biochemical
T1 construct: expressed in transfected cells
Outline: (§1)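 Membranes with […] GTPγ[35S] in Tris pH 7.4 buffer with MgCl2, NaCl, 30 μM GDP; antagonist (10^−10–10^−5 M) preincubated 10 min at 30 °C, then challenged with BW-373U86 1 nM (delta), dynorphin-A 10 nM (kappa) or endorphin 1 μM (mu) for 1 h at 30 °C. Scintillation read-out; Ki derived.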

opioid receptor delta = target: T2, opioid receptor delta (Homo sapiens, UniProt P41143); assay: GTPγ[35S] binding assay, antagonism of BW-373U86; assay type: biochemical
T2 construct: expressed in transfected cells
Outline: as §1

[1] = Fasted induced refeeding model; assay type: in vivo, Sprague-Dawley rats; conditions: rats after overnight fast, compared with vehicle
Experimental: The following screen is used to evaluate the efficacy of test compounds for inhibiting food intake in Sprague-Dawley rats after an overnight fast.
Male Sprague-Dawley rats were obtained from Charles River Laboratories, Inc. (Wilmington, Mass.). The rats are individually housed and fed powdered chow. They are maintained on a 12 hour light/dark cycle and received food and water ad libitum. The animals are acclimated to the vivarium for a period of one week before testing is conducted. Testing is completed during the light portion of the cycle.
To conduct the food intake efficacy screen, rats are transferred to individual test cages without food the afternoon prior to testing, and the rats are fasted overnight. After the overnight fast, rats are dosed the following morning with vehicle or test compounds. A known antagonist is dosed (3 mg/kg) as a positive control, and a control group receives vehicle alone (no compound). […] Individual rat food intake is recorded continuously at 10-minute intervals for a period of two hours. When required, food intake is recorded manually using an electronic scale; food is weighed every 30 minutes after food is provided up to four hours after food is provided. Compound efficacy is determined by comparing the food intake pattern of compound-treated rats to vehicle and the standard positive control.

[2] = Spontaneous food intake model; assay type: in vivo, Sprague-Dawley rats; conditions: rats dosed before onset of dark cycle, compared with vehicle
Experimental: Male Sprague-Dawley rats may be obtained from Charles River Laboratories, Inc. (Wilmington, Mass.). The rats were individually housed and fed powdered chow. They were maintained on a 12 hour light/dark cycle and received food and water ad libitum. The animals were acclimated to the vivarium for a period of one week before testing is conducted. Rats were transferred to individual test cages 30 hours before the study. The rats were administered test compound or vehicle alone (no compound) 15-30 minutes prior to the onset of the dark cycle. The test compounds were dosed at ranges between 0.1 and 100 mg/kg depending upon the compound. The standard vehicle was 0.5% (w/v) methylcellulose or 30% β-cyclodextrin in water and the standard route of administration was oral. However, different vehicles and routes of administration are used to accommodate various compounds when required. Food intake was monitored using an automated Columbus Instruments system (Columbus, Ohio). Individual rat food intake was recorded continuously at 10-minute intervals, starting at the time of dosing, for a period of at least 12 hours. Compound efficacy was determined by comparing the food intake pattern of compound-treated rats to vehicle.

opioid receptor kappa = target: T3, opioid receptor kappa (Homo sapiens, UniProt P41145); assay: GTPγ[35S] binding assay, antagonism of dynorphin-A; assay type: biochemical
T3 construct: expressed in transfected cells
Outline: as §1

TNF-α production = conditions: rats; cited from earlier work
[3] = bile duct ligated rats; cited from earlier work
[4] = cited from earlier work
[5] = humans; cited from earlier work
[6] = rodents; cited from earlier work
[7] = rat, in vivo; cited from earlier work
[8] = average Ki, antagonism of endorphin (1 μM) stimulated GTPγ[35S] binding, mu opioid receptor membranes, read-out: Mu functional (GTPγ[35S] binding Ki)
[9] = average Ki, antagonism of BW-373U86 (1 nM) stimulated GTPγ[35S] binding, delta opioid receptor membranes, read-out: Delta functional (GTPγ[35S] binding Ki)
[10] = average Ki, antagonism of dynorphin-A (10 nM) stimulated GTPγ[35S] binding, kappa opioid receptor membranes, read-out: Kappa functional (GTPγ[35S] binding Ki)
[11] = read-out: Mu functional (GTPγ[35S] binding Ki)
[12] = read-out: Delta functional (GTPγ[35S] binding Ki)
[13] = read-out: Kappa functional (GTPγ[35S] binding Ki)

T1 sequence (P35372 whole entry): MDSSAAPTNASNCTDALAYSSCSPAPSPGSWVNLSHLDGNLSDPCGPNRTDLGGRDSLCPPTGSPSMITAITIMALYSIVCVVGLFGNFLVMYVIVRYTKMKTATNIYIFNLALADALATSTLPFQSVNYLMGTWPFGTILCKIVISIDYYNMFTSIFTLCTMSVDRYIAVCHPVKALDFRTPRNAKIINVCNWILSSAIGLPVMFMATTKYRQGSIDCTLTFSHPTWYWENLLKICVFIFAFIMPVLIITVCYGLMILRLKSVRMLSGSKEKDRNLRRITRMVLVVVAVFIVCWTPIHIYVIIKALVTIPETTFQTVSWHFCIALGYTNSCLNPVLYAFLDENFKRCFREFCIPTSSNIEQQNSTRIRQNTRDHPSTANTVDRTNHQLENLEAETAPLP
T3 sequence (P41145 whole entry): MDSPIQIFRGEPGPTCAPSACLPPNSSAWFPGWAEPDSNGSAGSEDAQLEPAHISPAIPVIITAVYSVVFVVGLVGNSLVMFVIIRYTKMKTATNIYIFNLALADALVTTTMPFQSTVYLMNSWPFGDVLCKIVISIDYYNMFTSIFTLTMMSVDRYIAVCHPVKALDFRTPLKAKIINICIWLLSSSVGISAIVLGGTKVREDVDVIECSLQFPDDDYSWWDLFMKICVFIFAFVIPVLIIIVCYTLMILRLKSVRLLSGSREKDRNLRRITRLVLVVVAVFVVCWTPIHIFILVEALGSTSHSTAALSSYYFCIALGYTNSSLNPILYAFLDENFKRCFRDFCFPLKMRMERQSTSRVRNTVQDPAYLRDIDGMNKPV
T2 sequence (P41143 whole entry): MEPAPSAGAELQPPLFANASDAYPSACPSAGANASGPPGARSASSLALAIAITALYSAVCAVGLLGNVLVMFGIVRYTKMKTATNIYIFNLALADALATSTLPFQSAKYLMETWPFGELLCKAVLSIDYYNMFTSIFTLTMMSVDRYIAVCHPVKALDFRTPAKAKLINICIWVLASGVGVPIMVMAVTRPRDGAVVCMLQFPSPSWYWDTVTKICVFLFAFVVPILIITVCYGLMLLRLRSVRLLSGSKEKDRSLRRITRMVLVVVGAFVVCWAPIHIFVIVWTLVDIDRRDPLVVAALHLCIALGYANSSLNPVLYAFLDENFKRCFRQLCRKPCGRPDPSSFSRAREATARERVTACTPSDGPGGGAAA
mu opioid receptor, sequence (P35372 whole entry): as the sequence (P35372 whole entry) above
kappa opioid receptor, sequence (P41145 whole entry): as the sequence (P41145 whole entry) above
delta opioid receptor, sequence (P41143 whole entry): as the sequence (P41143 whole entry) above

## C[C@H]1CN(CCC(O)C2CCCCC2)CC[C@@]1(C)c1cccc(O)c1 (stereo partly drawn) [LY515300, 1-(3-cyclohexyl-3-hydroxypropyl)-3(R),4(R)-dimethyl-4-(3-hydroxyphenyl)piperidine]
Kappa opioid receptor
  binding affinity: subnanomolar
Mu opioid receptor
  binding affinity: subnanomolar
Delta opioid receptor
  binding affinity: lower affinity

## Cc1cc(C(N)=O)c(F)cc1-c1ccc(CNCCC(C)C)c(F)c1.Cl.O (hydrate or solvate)
other
  melting point: 229 °C

## CC(C)CCNCc1ccc(-c2cccc(-c3nnc[nH]3)c2)c(F)c1.Cl [E7-02, [2-Fluoro-3′-(4H-[1,2,4]-triazol-3-yl)-biphenyl-4-ylmethyl]-(3-methyl-butyl)-amine hydrochloride salt]
Opioid receptor mu; read-out: Mu functional Ki (GTPγ[35S] binding)
  pKi: 8.48
Opioid receptor delta; read-out: Delta functional Ki (GTPγ[35S] binding)
  pKi: 5.85
[1]
  food intake: significant reduction in food intake
[2]
  food intake: significant reduction in food intake
Opioid receptor kappa; read-out: Kappa functional Ki (GTPγ[35S] binding)
  pKi: 8.23

## CC(C)CCNCc1ccc(-c2cc(C(N)=O)ccc2F)c(F)c1.Cl [1A-07]
Opioid receptor mu; [8]
  pKi: 7.84
Opioid receptor delta; [9]
  pKi: 8.02
[2]
  food intake: significant reduction in food intake
Opioid receptor kappa; [10]
  pKi: 7.84

## O=C1CC[C@@]2(O)[C@H]3Cc4ccc(O)c5c4[C@@]2(CCN3CC2CC2)[C@H]1O5 [Naltrexone]
TNF-α production
  LPS-stimulated TNF-α production: inhibit LPS-stimulated TNF-α production
[3]
  liver fibrosis: attenuate liver fibrosis
[4]; Polycystic Ovarian Syndrome (PCOS) women with hyperinsulinemia
  insulin sensitivity: improve insulin sensitivity
[4]; post-menopausal women with hyperinsulinemia
  insulin sensitivity: improve insulin sensitivity
[5]
  weight loss efficacy: poor weight loss efficacy
[6]
  weight loss efficacy: poor weight loss efficacy

## Cc1cc(CNCCC(C)C)ccc1-c1ccc(C(N)=O)cc1C.Cl [E2-01, 2,2′-Dimethyl-4′-[(3-methyl-butylamino)-methyl]-biphenyl-4-carboxylic acid amide hydrochloride salt]
Opioid receptor mu; [11]
  pKi: 9.05
Opioid receptor delta; [12]
  pKi: 8.86
[2]
  food intake: significant reduction in food intake
Opioid receptor kappa; [13]
  pKi: 8.69

## Cc1cc(C(N)=O)ccc1-c1ccc(CNC2Cc3ccccc3C2)cc1.Cl [4B-04]
Opioid receptor mu; [8]
  pKi: 10.03
Opioid receptor delta; [9]
  pKi: 9.73
[2]
  food intake: significant reduction in food intake
Opioid receptor kappa; [10]
  pKi: 9.39

## Cc1cc(C(N)=O)ccc1-c1cc(F)c(CNCCC(C)C)c(F)c1.Cl [E1-01, 3′,5′Difluoro-2-methyl-4′-[(3-methyl-butylamino)-methyl]-biphenyl-4-carboxylic acid amide hydrochloride salt]
Opioid receptor mu; [11]
  pKi: 8.68
Opioid receptor delta; [12]
  pKi: 8.77
[2]
  food intake: significant reduction in food intake
Opioid receptor kappa; [13]
  pKi: 8.58

## C[C@H]1CN(CC[C@H](O)C2CCCCC2)CC[C@@]1(C)c1cccc(O)c1 [LY255582]
[7]
  anorectic effects: robust anorectic effects

## Cc1cc(C(N)=O)ccc1-c1ccc(CNCCC(C)C)cc1F.Cl [1B-03]
Opioid receptor mu; [8]
  pKi: 8.05
Opioid receptor delta; [9]
  pKi: 8.29
[2]
  food intake: significant reduction in food intake
Opioid receptor kappa; [10]
  pKi: 8.48
